Columns and labels:
Format in all cases: cell-based, human
[1] = system: MCF-7, T47D, DU145, PC3, HepG2 and Panc1 cells; experiment: LC3BII immunoblot in a range of tumor cell lines; conditions: 10 μM, 24 hours
Procedure: FIG. 36, comprising FIGS. 36A-36C, illustrates Sigma1 antagonist associated autophagy. FIG. 36A, comprises representative images of translocation of GFP-tagged LC3 (LC3-GFP) into autophagosomes in MDA-MB-468 (MDA468) breast adenocarcinoma cells. Only antagonist-treated MDA-MB-468 cells presented LC3-GFP translocation to autophagosomes: […]. […] The images are representative of at least 80 fields for each treatment condition. FIG. 36B is an image of an immunoblot illustrating the finding that formation of GFP-LC3II the formation of GFP-LC3 positive punctae, an indicator of autophagosome formation. Protein extracts from MDA-MB-468 cells stably transfected with and expressing GFP-LC3, treated for 24 hours with 10 μM of the indicated Sigma1 ligand. FIG. 36C comprises images of immunoblots illustrating that increased levels of the microtubule associated protein light chain 3BII isoform (LC3BII) is another broadly used indicator of activated autophagy. […] Legend: MCF-7 (breast adenocarcinoma), T47D (breast adenocarcinoma), DU145 (prostate adenocarcinoma), PC3 (prostate adenocarcinoma), HepG2 (hepatocellular carcinoma), and Panc1 (pancreatic adenocarcinoma).

[2] = system: MDA-MB-468 (GFP-LC3) cells; experiment: GFP-LC3 punctae (autophagosome formation) microscopy assay; conditions: for mean number of punctae per cell: 10 μM
Procedure: The human GFP-LC3 expression plasmid, pEGFP-LC3 (a gift from Drs. Grazia Ambrosini and Gary K. Schwartz, MSKCC), was stably transfected into MDA-MB-468 and selected with 0.5 mg/ml G418 sulfate. Stable populations were generated and compared to parental MDA-MB-468 for Sigma1 expression and autophagic and growth inhibitory response to Sigma ligands. GFP-LC3 translocation (punctae formation) was assessed by microscopy in MDA-MB-468 (GFP-LC3) stable cell populations. For microscopy-based experiments, cells were seeded onto Lab-Tek II glass chamber slides (Nalge Nunc International). […] Images of GFP-LC3 punctae were acquired with a Zeiss Axioplan 2 Imaging widefield microscope using Axiovision LE software. Punctae were counted using the spot quantitation program in the Fluoro-Chem software package (Alpha Innotech) and confirmed in parallel by manual counting. Autophagosome formation in MDAMB-468 (GFP-LC3) cells was quantitated as the mean number of GFP-LC3 punctae per GFP positive cell.
Initially, an established immunoblot-based assay to detect microtubule associated protein light chain 3 (LC3) lipidation was used to test for the activation of autophagy. […] Since transient transfections can produce spurious GFP-LC3 aggregates, stable GFP-LC3 transfected populations of MDA-MB-468 (GFP-LC3) were generated. […]

[3] = system: T-47D breast adenocarcinoma cells; experiment: Cell size by flow cytometry (mean FSC-H, G1 phase); conditions: 10 μM, 24 hours; control 412±5
Procedure: FIG. 31A is a differential interference contrast (DIC) image of MDA-MB-468 breast adenocarcinoma cells treated for ˜20 hours with DMSO (drug vehicle control), 10 μM IPAG (antagonist) or 10 μM PRE084 (agonist). A twenty-micron bar is shown in each image. Data are presented as mean±SEM. FIG. 31B is a graph illustrating the finding that IPAG diminished the mean cell size (FSC-H) of MDA-MB-468 breast tumor cells in a time-responsive manner. The mean FSC-H of 370±5 at to decreased to 323±4 after 24 hours of IPAG treatment and to 267±2 after 48 hours of treatment. Two-tailed t-tests were performed to determine statistical significance. For IPAG treatment compared to control (DMSO) and Sigma agonists (SKF and PRE084), P=0.0002 at d1 and P=0.00013 at d2. Data were generated from three to five independent determinations for each time-point. Flow cytometry was used to measure mean cell size (mean FSC-H) of T-47D breast adenocarcinoma cells. FIG. 31C is a bar graph illustrating T-47D cells treated for 24 hours with 10 μM indicated Sigma ligand. IPAG and BD 1047 (Sigma1 antagonists) diminished cell size from a mean FSC-H of 412±5 for control (DMSO) cells versus 341±7 and 381±8 for IPAG and BD1047 treated cells, respectively. […] Data represent 5 independent determinations (*P<0.05, ***P<0.001). FIG. 31D is a bar graph illustrating how IPAG (antagonist) decreases cell size in a dose responsive manner. T-47D were treated for 24 h with 1 and 10 μM IPAG, and mean FSC-H was measured. FIG. 31E is a graph illustrating that T47D cell size decreases over time. T-47D cells were treated for a total of 48 hours with 10 μM of the indicated Sigma ligands. […] Neither Sigma1 agonist, (+)-SKF10047 and PRE084, altered cell size. […] Two-tailed t-tests were performed to determine statistical significance. For IPAG treatment compared to control (DMSO) and Sigma1 agonists (SKF and PRE084), P=0.0002 at d1 and P<0.0001 at d2. For FIGS. 31B-31E, the mean FSC-H was determined for each cell cycle population (i.e., G1, S, G2/M), and data is shown for G1 phase cells. S and G2/M phase cells responded similarly (data not shown).

[4] = system: MDA-MB-468 cells; experiment: Cell size by flow cytometry (mean FSC-H, G1 phase); conditions: 10 μM, 24 hours
Procedure: FIG. 11 is a graph illustrating decrease in MDAMB468 cell size associated with the Sigma1 antagonist treatment. MDA-MB-468 cells were treated for 24 hours with DMSO (control), 10 μM IPAG (antagonist), or 10 μM PRE084 (agonist). Cell size was quantitated by flow cytometry, using a Becton Dickinson FACS Calibur flow cytometer with Cell Quest software. The mean forward scatter height (FSC-H) of the G1-phase population was determined as a measure of relative cell size. Single cells were gated away from aggregated cells using an FL2-width versus FL-2 area dot plot. Mean FSC-H±S.E. was calculated from at least 4 independent determinations. For each FSC-H determination, FACS analysis was performed on 10,000 single cells. The mean FSC-H of DMSO (control) and PRE084 treated MDA-MB-468 measured 370±6 and 372±7, respectively, whereas the mean FSC-H of IPAG treated MDA-MB-468 cells was 323±4. ** P<0.01 for IPAG compared to DMSO and IPAG compared to PRE084.
FIG. 31A is a differential interference contrast (DIC) image of MDA-MB-468 breast adenocarcinoma cells treated for ˜20 hours with DMSO (drug vehicle control), 10 μM IPAG (antagonist) or 10 μM PRE084 (agonist). A twenty-micron bar is shown in each image. Data are presented as mean±SEM. FIG. 31B is a graph illustrating the finding that IPAG diminished the mean cell size (FSC-H) of MDA-MB-468 breast tumor cells in a time-responsive manner. The mean FSC-H of 370±5 at to decreased to 323±4 after 24 hours of IPAG treatment and to 267±2 after 48 hours of treatment. Two-tailed t-tests were performed to determine statistical significance. For IPAG treatment compared to control (DMSO) and Sigma agonists (SKF and PRE084), P=0.0002 at d1 and P=0.00013 at d2. Data were generated from three to five independent determinations for each time-point. […] T-47D were treated for 24 h with 1 and 10 μM IPAG, and mean FSC-H was measured. […] For FIGS. 31B-31E, the mean FSC-H was determined for each cell cycle population (i.e., G1, S, G2/M), and data is shown for G1 phase cells. […]

[5] = system: PC3 and DU145 PCa cells; experiment: UPR induction in prostate cancer cell lines; conditions: preliminary experiments
Source text: FIG. 15 is an image of an immunoblot illustrating induction of UPR in a prostate cancer cell line. […] P-IRE1α indicates phosphorylated IRE1α. Similar results were obtained with DU145 prostate cancer cells.
This might be due to an accumulation of ubiquitylated proteins or due to an increase in ubiquitin ligase activity. Progression of the ER stress response could be monitored by a set of markers, many of which have been directly linked to the UPR. The most extensively investigated sensors that initiate the UPR are IRE1α, PERK, and ATF6, which transduce signals to a cascade of effectors. Many of these UPR 4 effectors function as transcription factors that induce the synthesis of ER chaperones, such as GRP78/BiP and GRP94, involved in maintaining protein homeostasis.

[6] = system: PC3 prostate adenocarcinoma cells; experiment: Ubiquitin (P4D1) immunoblot, prostate adenocarcinoma cells; conditions: 10 μM
[7] = system: PC3 prostate cancer cells; experiment: LC3BII immunoblot, prostate cancer cells; conditions: 10 μM, 24 hours
Procedure: FIG. 16, comprising FIGS. 16A-16B, illustrates Sigma antagonist associated autophagy. FIG. 16A illustrates representative images of the translocation of GFP-tagged LC3 (LC3-GFP) into autophagosomes in a control (DMSO) group and a haloperidol-treated group (10 μM, antagonist). FIG. 16B is an image of a gel illustrating increased levels of the microtubule-associated protein light chain 3BII isoform (CL3BII), which is a broadly used indicator of activated autophagy.
Sigma antagonist-induced ER stress led to the activation of autophagy in several tumor cell lines, including PC3 prostate cancer cells (FIG. 16). In preliminary experiments, an immunoblot assay was performed to detect the formation of the lipid-conjugated form of microtubule associated protein light chain 3 (LC3II), a widely used marker of autophagosome formation (FIG. 16).

[8] = system: MDA-MB-468 breast adenocarcinoma cells; experiment: LC3 lipidation (LC3II) immunoblot; conditions: 10 μM, 24 hours
Procedure: Cells were lysed and proteins extracted in a modified RIPA buffer (25 mM Tris-HCl pH 7.6, 150 mM NaCl, 1% NP-40, 1% sodium deoxycholate and 0.1% SDS) supplemented with 10% glycerol (volume/volume), complete protease inhibitor cocktail (Roche), and Halt phosphatase inhibitor cocktail (Pierce). Approximately 10-20 μg of detergent soluble protein were resolved on NOVEX 10-20% polyacrylamide Tris-glycine gels (InVitrogen). Immunoblots were performed in a 20 mM Tris-buffered 137 mM saline solution (pH 7.6) containing 0.1% Tween-20 (polyoxyethylene (20) sorbitan monolaurate) and 5% (weight/volume) blotting grade non-fat dry milk (BioRad). The Lumigen PS-3 enhanced chemiluminescence kit (GE Healthcare) was used to reveal immunoblotted proteins.
Initially, an established immunoblot-based assay to detect microtubule associated protein light chain 3 (LC3) lipidation was used to test for the activation of autophagy. […] Since transient transfections can produce spurious GFP-LC3 aggregates, stable GFP-LC3 transfected populations of MDA-MB-468 (GFP-LC3) were generated. These cells were treated for 24 hours with increasing concentrations of Sigma receptor antagonists and agonists, and were compared to basal and DMSO treated controls (FIGS. 4B & 4C).

[9] = system: PC3 cells; experiment: PC3 cell death by trypan blue exclusion; conditions: 5 μM
Procedure: FIG. 1, comprising FIGS. 1A-1B, illustrates prostate adenocarcinoma cell death induced by Sigma1 antagonists. […] Quantitated cell death was presented as the percentage of trypan blue positive cells per drug treated population. Salient cell death occurred following ˜24-48 hours of treatment with the Sigma antagonist.
Cell death was evaluated by trypan blue exclusion assay, as well as cleaved caspase 3 (Asp 175) and cleaved PARP (Asp 214) immunoblot. Trypan blue exclusion and propidium iodide staining were used to quantify general cell death and the presence of apoptotic cell death was confirmed by immunoblot. The percentage of dead cells in a given population was determined by quantifying the number of trypan blue positive (dead) cells and dividing by the total number of trypan blue positive and negative cells.

[10] = system: MCF-7, T47D and MDA-MB-468 cells; experiment: Cell proliferation by Alamar blue reduction, breast adenocarcinoma cultures; conditions: after 4 days of treatment, six drug concentrations
Source text: In vitro cell proliferation was quantitated by Alamar blue reduction. The anti-proliferative effects of six drug concentrations of the indicated drugs were quantitated after 4 days of treatment.

## O=C(OCCN1CCOCC1)C1(c2ccccc2)CCCCC1 [PRE-084, 2-morpholin-4-ylethyl 1-phenylcyclohexane-1-carboxylate]
[1]
  LC3BII levels: did not significantly alter basal autophagy
[2]; drug concentrations up to 100 μM, 24 hours
  GFP-LC3 punctae per cell: no more than 6±2 punctae per cell
[3]
  mean FSC-H (relative cell size): did not alter cell size
[4]
  mean FSC-H (relative cell size): 372±7

## O=C(CCCN1CCC(O)(c2ccc(Cl)cc2)CC1)c1ccc(F)cc1 [haloperidol, 4-[4-(4-chlorophenyl)-4-hydroxy-1-piperidyl]-1-(4-fluorophenyl)-butan-1-one]
[5]
  IRE1α and BiP levels: salient induction of IRE1α and BiP levels
[6]
  level of ubiquitinated proteins: increased level of ubiquinated proteins
[7]
  LC3BII levels: salient induction of LC3BII levels
[2]; 24 hours, knockdown of Beclin1
  mean number of punctae per cell: 17±1 punctae per cell
[2]; 24 hours, without Beclin1 knockdown
  mean number of punctae per cell: 36±4 punctae per cell
[2]; following 24 hours of treatment
  concentration at which precipitous cell death occurred: 40 µM
[8]
  conversion of LC3 to LC3II (autophagosome formation): converted LC3 to LC3II
[9]
  treatment time after which salient cell death occurred: 24 to 48 h
[10]
  inhibition of cell proliferation: also inhibited cell proliferation
